Columns and labels:
[1] = test system: rat ileal smooth muscle ring preparation; assay: Rat ileum smooth muscle ring bioassay (constriction of spontaneously contracting ileum); format: cell-based; conditions: for % Maximum Response (constriction): spontaneously contracting rat ileum, at optimum concentration
Source text: (B) Small Intestinal Smooth Muscle:
(§1) For intestinal smooth muscle preparations, one cm thick rings of ileum were carefully placed onto the pins of a MacLab force transducer, one pin acting as a stationary fixed point while the second pin was free, permitting application of tension to the smooth muscle. The muscle rings were gradually exposed to 0.1 g increments in resting tension until the spontaneous contractions originated from a resting tension of 0.5 g. The contracting muscle preparations were allowed to stabilise for 25 min before the application of peptides. After perfusion of arterial preparations with 10 μM phenylephrine to obtain constriction plateaux, relative relaxation was recorded following applications of peptides in the range of 1×10^−5-1×10^−10 M. The intestinal smooth muscle ring preparations were exposed to peptide doses as above and relative changes in tension were recorded.

[2] = test system: rat tail arterial smooth muscle preparation; assay: Rat tail artery smooth muscle bioassay (relaxation of phenylephrine-preconstricted artery); format: cell-based; conditions: for % Maximum Response (relaxation): rat tail artery, pre-constricted, at optimum concentration
Protocol: (A) Arterial Smooth Muscle:
Male albino Wistar rats (200-350 g) were euthanized by asphyxiation followed by cervical dislocation.
The tail artery was prepared as previously described (Hirst et al (1994) Br. J. Radiol. 67, 795-799). Incubation buffer was 95% O2/5% CO2 oxygenated Krebs' solution (NaCl 118 mM, KCl 4.7 mM, NaHCO3 25 mM, NaH2 PO4 1.15 mM, CaCl2 2.5 mM, MgCl2 1.1 mM, glucose 5.6 mM). Constriction or dilation of the arterial smooth muscle preparation was detected by an increase or decrease in pressure generated by water column displacement using pressure transducers connected to a MacLab System (AD Instruments Pty Ltd. Australia). […] Viability was determined using a range of bolus phenylephrine (5 μM-10 μM) exposures and the endothelial layer of the artery was removed by bubbling with oxygen for 10 s. Absence of the endothelial layer was confirmed by the lack of relaxation in response to a 30 min perfusion of acetylcholine (50 μM) after preconstriction with phenylephrine (10 μM).
as §1

[3] = test system: HMEC-1; assay: Endothelial cell proliferation assay (MTT); format: cell-based, human
Protocol: FIG. 4 illustrates the effect of the QUB 698.8 peptide on the proliferation of HMEC-1 over 72 hours compared to a non-treatment control.
(§2) • 1. […] Selective arterial smooth muscle dilators often have pro-angiogenic properties so QUB 698.8 was subjected to a range of appropriate bioassays to determine spectra of activity. • 4. In the human microvessel endothelial cell wound scrape assay, cells are grown on a glass slide to confluence, a standard-sized wound is made with a pipette tip and time taken to repair tear is measured. QUB 698.8 promoted wound closure 42% faster than non-treated controls at an optimum effective concentration of 10 nanomolar (Table 1—panel B and FIGS. 2a and b). • 5. Using an in vitro endothelial cell angiogenic tubule formation assay (Matrigel) QUB 698.8 induced 75% more tubules than time-matched controls at an optimum concentration of 1 nanomolar (Table 1—panel B and FIG. 3). • 6. […] (Table 1—panel B and FIG. 4). This may be indicative of a rapid role in cell cycle synchronization.

[4] = test system: HMEC-1; assay: In vitro endothelial cell angiogenic tubule formation assay (Matrigel); format: cell-based, human
Protocol: FIG. 3 illustrates the effect of the QUB 698.8 peptide on the ability of HMEC-1 to form tubules on matrigel matrices.
as §2

[5] = test system: Human Microvascular Endothelial Cells (HMEC-1); assay: Human microvessel endothelial cell wound scrape (migration) assay; format: cell-based
Protocol: as §2

[6] = migration wound scrape, T = 7 dose response

DLPKINRKGPRPPGFSPFR [Mx, Asp-Leu-Pro-Lys-Ile-Asn-Arg-Lys-Gly-Pro-Arg-Pro-Pro-Gly-Phe-Ser-Pro-Phe-Arg, reference compound]
EC50 ([1]; rat ileum constriction): 534 nM
Optimum Concentration ([1]; rat ileum constriction): 10^−6 M
% Maximum Response (constriction) [1]: 52% Constriction
EC50 ([2]; rat tail artery relaxation): 6.18 nM
Optimum Concentration ([2]; rat tail artery relaxation): 10^−7 M
% Maximum Response (relaxation) [2]: 30% relaxation

DLPKIN [QUB 698.8, Asp-Leu-Pro-Lys-Ile-Asn]
Endothelial cell number compared to non-treated controls after 48 h ([3]; after 48 h): no significant differences
Other information: proliferation after 24 hrs ([3]; beyond 24 hrs): No further
EC50 ([3]; proliferation): 0.0659 nM
Optimum Concentration ([3]; proliferation): 10^−8 M
Peptide effect ([3]; stimulator of endothelial cell proliferation): Potent
Response of rat ileal smooth muscle ring preparation [1]: dose-dependent constriction
EC50 ([1]; rat ileum constriction): 1440 nM
Optimum Concentration ([1]; rat ileum constriction): 10^−5 M
Potency relative to bradykinin and maximakinin ([1]; rat ileum constriction): less potent than both bradykinin and maximakinin
% Maximum Response (constriction) [1]: 52% Constriction
Peptide effect ([4]; stimulator of endothelial tubule formation): Potent
EC50 ([4]; tubule formation): 0.0526 nM
Optimum Concentration ([4]; tubule formation): 10^−9 M
Optimum concentration ([4]; tubule formation): 1 nM
Response of rat tail arterial smooth muscle preparation [2]: dose-dependent relaxation
Optimum concentration for maximal effect, arterial compared to ileal smooth muscle ([2]; arterial vs ileal smooth muscle): two orders of magnitude lower
EC50 ([2]; rat tail artery relaxation): 7 nM
Optimum Concentration ([2]; rat tail artery relaxation): 10^−7 M
Potency relative to bradykinin ([2]; rat tail artery relaxation): almost equipotent with bradykinin
Potency relative to maximakinin ([2]; rat tail artery relaxation): more potent than maximakinin
% Maximum Response (relaxation) [2]: 25% relaxation
Time to 50% wound closure ([5]; migration wound scrape, Other information): T = 3 hrs
EC50 [5, 6]: 0.339 nM
Optimum Concentration [5, 6]: 10^−8 M
Peptide effect ([5]; migration wound scrape, T = 7 dose response: promoter of wound closure): Potent
Optimum effective concentration ([5]; wound closure): 10 nM
Optimum Concentration ([5]; wound scrape total time to closure): 10^−8 M
Time to complete wound closure ([5]; wound scrape total time to closure, 10^−8 M): 16 h
Peptide effect ([5]; wound scrape total time to closure: stimulator of initial endothelial migration): Potent

From patent US8614187B2, “Peptides, compositions and uses thereof” (The Queen's University of Belfast, priority 2007, dated 2013)
